According to the CheMixHub viscosity set:
± gives the uncertainty stated by the source.

Experiment: xn = mol fraction of the nth substance listed

CCCCNCCCC + CCC(C)O
viscosity (298.15 K, 101.33 kPa, x1 = 0.0594): 2.662 mPa·s | viscosity (298.15 K, 101.33 kPa, x1 = 0.0839): 2.525 mPa·s | viscosity (298.15 K, 101.33 kPa, x1 = 0.1282): 2.305 mPa·s | viscosity (298.15 K, 101.33 kPa, x1 = 0.1858): 2.06 mPa·s | viscosity (298.15 K, 101.33 kPa, x1 = 0.2618): 1.787 mPa·s | viscosity (298.15 K, 101.33 kPa, x1 = 0.3612): 1.511 mPa·s | viscosity (298.15 K, 101.33 kPa, x1 = 0.4306): 1.373 mPa·s | viscosity (298.15 K, 101.33 kPa, x1 = 0.5042): 1.246 mPa·s | viscosity (298.15 K, 101.33 kPa, x1 = 0.5658): 1.16 mPa·s | viscosity (298.15 K, 101.33 kPa, x1 = 0.6215): 1.095 mPa·s | viscosity (298.15 K, 101.33 kPa, x1 = 0.6856): 1.031 mPa·s | viscosity (298.15 K, 101.33 kPa, x1 = 0.7458): 0.986 mPa·s | viscosity (298.15 K, 101.33 kPa, x1 = 0.794): 0.959 mPa·s | viscosity (298.15 K, 101.33 kPa, x1 = 0.8584): 0.905 mPa·s | viscosity (298.15 K, 101.33 kPa, x1 = 0.9138): 0.859 mPa·s | viscosity (303.15 K, 101 kPa, x1 = 0.008423): 2.446 ± 0.016 mPa·s | viscosity (303.15 K, 101 kPa, x1 = 0.01776): 2.42 ± 0.016 mPa·s | viscosity (303.15 K, 101 kPa, x1 = 0.02719): 2.398 ± 0.016 mPa·s | viscosity (303.15 K, 101 kPa, x1 = 0.03174): 2.389 ± 0.016 mPa·s | viscosity (303.15 K, 101 kPa, x1 = 0.04204): 2.369 ± 0.016 mPa·s | viscosity (303.15 K, 101 kPa, x1 = 0.0502): 2.353 ± 0.016 mPa·s | viscosity (303.15 K, 101 kPa, x1 = 0.06011): 2.332 ± 0.016 mPa·s | viscosity (303.15 K, 101 kPa, x1 = 0.06621): 2.32 ± 0.015 mPa·s | viscosity (303.15 K, 101 kPa, x1 = 0.07608): 2.299 ± 0.015 mPa·s | viscosity (308.15 K, 101.33 kPa, x1 = 0.0594): 1.888 mPa·s | viscosity (308.15 K, 101.33 kPa, x1 = 0.0839): 1.79 mPa·s | viscosity (308.15 K, 101.33 kPa, x1 = 0.1282): 1.657 mPa·s | viscosity (308.15 K, 101.33 kPa, x1 = 0.1858): 1.516 mPa·s | viscosity (308.15 K, 101.33 kPa, x1 = 0.2618): 1.344 mPa·s | viscosity (308.15 K, 101.33 kPa, x1 = 0.3612): 1.181 mPa·s | viscosity (308.15 K, 101.33 kPa, x1 = 0.4306): 1.089 mPa·s | viscosity (308.15 K, 101.33 kPa, x1 = 0.5042): 1.012 mPa·s | viscosity (308.15 K, 101.33 kPa, x1 = 0.5658): 0.952 mPa·s | viscosity (308.15 K, 101.33 kPa, x1 = 0.6215): 0.898 mPa·s | viscosity (308.15 K, 101.33 kPa, x1 = 0.6856): 0.855 mPa·s | viscosity (308.15 K, 101.33 kPa, x1 = 0.7458): 0.818 mPa·s | viscosity (308.15 K, 101.33 kPa, x1 = 0.794): 0.803 mPa·s | viscosity (308.15 K, 101.33 kPa, x1 = 0.8584): 0.76 mPa·s | viscosity (308.15 K, 101.33 kPa, x1 = 0.9138): 0.733 mPa·s | viscosity (318.15 K, 101.33 kPa, x1 = 0.0594): 1.409 mPa·s | viscosity (318.15 K, 101.33 kPa, x1 = 0.0839): 1.328 mPa·s | viscosity (318.15 K, 101.33 kPa, x1 = 0.1282): 1.24 mPa·s | viscosity (318.15 K, 101.33 kPa, x1 = 0.1858): 1.147 mPa·s | viscosity (318.15 K, 101.33 kPa, x1 = 0.2618): 1.054 mPa·s | viscosity (318.15 K, 101.33 kPa, x1 = 0.3612): 0.948 mPa·s | viscosity (318.15 K, 101.33 kPa, x1 = 0.4306): 0.886 mPa·s | viscosity (318.15 K, 101.33 kPa, x1 = 0.5042): 0.827 mPa·s | viscosity (318.15 K, 101.33 kPa, x1 = 0.5658): 0.784 mPa·s | viscosity (318.15 K, 101.33 kPa, x1 = 0.6215): 0.753 mPa·s | viscosity (318.15 K, 101.33 kPa, x1 = 0.6856): 0.712 mPa·s | viscosity (318.15 K, 101.33 kPa, x1 = 0.7458): 0.696 mPa·s | viscosity (318.15 K, 101.33 kPa, x1 = 0.794): 0.684 mPa·s | viscosity (318.15 K, 101.33 kPa, x1 = 0.8584): 0.681 mPa·s | viscosity (318.15 K, 101.33 kPa, x1 = 0.9138): 0.661 mPa·s

CCOC(=O)C(=O)OCC + CCOC(C)=O
viscosity (303.15 K, 101 kPa, x1 = 0.0949): 0.458 ± 0.028 mPa·s | viscosity (303.15 K, 101 kPa, x1 = 0.196): 0.535 ± 0.032 mPa·s | viscosity (303.15 K, 101 kPa, x1 = 0.3019): 0.636 ± 0.038 mPa·s | viscosity (303.15 K, 101 kPa, x1 = 0.4065): 0.736 ± 0.044 mPa·s | viscosity (303.15 K, 101 kPa, x1 = 0.5006): 0.844 ± 0.051 mPa·s | viscosity (303.15 K, 101 kPa, x1 = 0.6036): 0.978 ± 0.059 mPa·s | viscosity (303.15 K, 101 kPa, x1 = 0.6954): 1.107 ± 0.067 mPa·s | viscosity (303.15 K, 101 kPa, x1 = 0.7993): 1.265 ± 0.076 mPa·s | viscosity (303.15 K, 101 kPa, x1 = 0.8948): 1.428 ± 0.086 mPa·s | viscosity (313.15 K, 101 kPa, x1 = 0.0949): 0.423 ± 0.026 mPa·s | viscosity (313.15 K, 101 kPa, x1 = 0.196): 0.486 ± 0.029 mPa·s | viscosity (313.15 K, 101 kPa, x1 = 0.3019): 0.56 ± 0.034 mPa·s | viscosity (313.15 K, 101 kPa, x1 = 0.4065): 0.647 ± 0.039 mPa·s | viscosity (313.15 K, 101 kPa, x1 = 0.5006): 0.734 ± 0.044 mPa·s | viscosity (313.15 K, 101 kPa, x1 = 0.6036): 0.847 ± 0.051 mPa·s | viscosity (313.15 K, 101 kPa, x1 = 0.6954): 0.95 ± 0.057 mPa·s | viscosity (313.15 K, 101 kPa, x1 = 0.7993): 1.081 ± 0.065 mPa·s | viscosity (313.15 K, 101 kPa, x1 = 0.8948): 1.203 ± 0.072 mPa·s | viscosity (323.15 K, 101 kPa, x1 = 0.0949): 0.381 ± 0.023 mPa·s | viscosity (323.15 K, 101 kPa, x1 = 0.196): 0.436 ± 0.026 mPa·s | viscosity (323.15 K, 101 kPa, x1 = 0.3019): 0.499 ± 0.03 mPa·s | viscosity (323.15 K, 101 kPa, x1 = 0.4065): 0.571 ± 0.034 mPa·s | viscosity (323.15 K, 101 kPa, x1 = 0.5006): 0.646 ± 0.039 mPa·s | viscosity (323.15 K, 101 kPa, x1 = 0.6036): 0.74 ± 0.045 mPa·s | viscosity (323.15 K, 101 kPa, x1 = 0.6954): 0.825 ± 0.05 mPa·s | viscosity (323.15 K, 101 kPa, x1 = 0.7993): 0.928 ± 0.056 mPa·s | viscosity (323.15 K, 101 kPa, x1 = 0.8948): 1.028 ± 0.062 mPa·s
